{
  "source": "patent US12128038B2",
  "about": "“Method of treatment of organic acidemias and other mitochondria defects or deficiencies” (University of Pittsburgh-Of the Commonwealth System of …, priority 2020, dated 2024)",
  "format_in_all_cases": "cell-based, human",
  "key": {"[1]": {"test_system": "PA patient (859) fibroblasts", "assay": "Mitochondrial superoxide production by MitoSOX Red assay (flow cytometry)", "conditions": "PA cells, treatment for 24 h", "procedure": "(§1) Cells Culture and Treatments: Fibroblast from a healthy control (826) and a PA patient (859) were grown in DMEM with glucose supplemented with 10% FBS, and 4 mM glutamine. Control and PA cells were treated either with JP4-039, CLP, or DMSO (vehicle control) for 24 h and then harvested for analysis.\nMitochondrial Superoxide production and Mitochondrial Mass: 150,000 Cells were incubated with MitoSOX Red (5 μM) and MitoTracker Green (150 nM) for 20 min at 37° C. and then analyzed by FACSAriall Flow cytometer.\nFIG. 2. Superoxide levels detected by MitoSOX Red assay (A, B and C) and Mitochondrial mass detected by MitoTracker Green (D, E and F) in PA and healthy control cells with and without treatment for 24 h (A, B and C). Data shown here are means±SD and are normalized to WT mean value. ****P<0.0001, ***P<0.001, **P<0.01, *P<0.05 compared between the groups shown using unpaired t test for samples from a single biological replicate and minimum of at least three technical replicates."}, "[2]": {"test_system": "PA (859) fibroblast cell line", "assay": "Mitochondrial respiration (oxygen consumption rate), Seahorse XFe96 Extracellular Flux Analyzer", "conditions": "PA cells, treatment for 24 h, Seahorse OCR", "procedure": "as §1\nMeasurement of Mitochondria Respiration: Oxygen consumption rate (OCR) was measured with a Seahorse XFe96 Extracellular Flux Analyzer, Seahorse Bioscience, Billerica, MA.\nFIG. 3. Effect of JP4-039 and CLP on basal respiration of control (826) and PA (859) fibroblast cell line. Data shown here are means±SEM and are normalized to protein amount mean value. ****P<0.0001 and ***P<0.001 compared between the groups shown using unpaired t test for samples from a single biological replicate and 8 technical replicates."}, "[3]": {"test_system": "cells from patients with inborn errors of energy metabolism", "assay": "Cellular bioenergetics and reactive oxygen on incubation with antioxidants"}},
  "data": [
    {"smiles": "O=C(O)CCC(=O)O", "note": "[succinate]", "values": [
      {"measurement": "superoxide level", "setting": "[1]", "value": "reduced"},
      {"measurement": "basal respiration", "setting": "[2]", "value": "reduced"}
    ]},
    {"smiles": "CC(C)C[C@@H](/C=C/[C@H](Cc1ccccc1)C(=O)N1CCC[C@H]1C(=O)N[C@H](C(=O)N[C@@H](CCCNC(=O)OCc1ccccc1)C(=O)NC1CC(C)(C)N([O])C(C)(C)C1)C(C)C)NC(=O)OC(C)(C)C", "note": "[XJB-5-131]", "values": [
      {"measurement": "cellular bioenergetics", "setting": "[3]", "value": "improve"},
      {"measurement": "reactive oxygen", "setting": "[3]", "value": "improve"}
    ]},
    {"smiles": "O=C(O)CC(O)(CC(=O)O)C(=O)O", "note": "[citrate]", "values": [
      {"measurement": "superoxide level", "setting": "[1]", "value": "reduced"},
      {"measurement": "basal respiration", "setting": "[2]", "value": "reduced"}
    ]}
  ]
}
